Molecules are shown by their SMILES. Where two headings read alike, the source gives them in different places.

The test system of assay [1] is MDA-MB-231 cells. Kind of assay: Sulforhodamine B antiproliferative assay, MDA-MB-231. The format is cell-based, human. Particulars: for IC50: sulforhodamine B assay, 48 h of treatment, read-out: IC50 MDA-MDB-231 (A). On the procedure: (§1) The antiproliferative effect of the isolated compounds (1–11) was investigated by the sulforhodamine B assay against human triple-negative breast cancer cell lines (MDA-MB-468 and MDA-MB-231) and breast ductal carcinoma cells (MCF-7) and the non-tumorigenic fibroblast (HFF-1) and breast cell lines (MCF12A). The IC50 values were determined after 48 h of treatment (Table 1).
(§2) Human breast adenocarcinoma MDA-MB-231, MDA-MB-468, and MCF-7 cell lines and non-tumorigenic foreskin fibroblast (HFF-1) and breast (MCF12A) cell lines were purchased from American Type Culture Collection (ATCC, Rockville, MD, USA). All cancer cell lines, except MCF12A, were routinely cultured in RPMI-1640 medium with glutamine from Corning (VWR, Carnaxide, Portugal) supplemented with 10% fetal bovine serum (FBS) from Biowest (Labclinics, Barcelona, Spain). MCF12A cells were cultured in a 1:1 mixture of Dulbecco’s modified Eagle’s medium and Ham’s F12 medium, 20 ng/mL human epidermal growth factor, 100 ng/mL cholera toxin, 0.01 mg/mL bovine insulin, and 500 ng/mL hydrocortisone and supplemented with 10% FBS. All cells were maintained in a humidified incubator at 37 °C with 5% CO2. All cells were routinely tested for mycoplasma contamination using the MycoAlertTM PLUS detection kit (Lonza, Basel, Switzerland).
(§3) Human cell lines were seeded in 96-well plates at a density of 5.0 × 10^3 (MDA-MB-231, MCF-7, HFF-1, and MCF12A) and 7.5 × 10^3 (MDA-MB-468) cells/well and allowed to adhere for 24 h. Cells were treated with serial dilutions of compounds (ranging from 0.1 to 40 μM) for an additional 48 h. Effect on cell proliferation was measured by sulforhodamine B assay, as described in [33], and the half-maximal inhibitory concentration (IC50) was then determined for each cell line using the GraphPad Prism software version 7.0 (La Jolla, CA, USA).

The test system of another assay is MCF12A cells. Put plainly: Sulforhodamine B antiproliferative assay, non-tumorigenic breast MCF12A. In kind it is cell-based. Particulars: Homo sapiens, MCF-12A, 48 h of treatment, read-out: IC50 MCF12A (D). As for the experimental part: as §1, §2, §3
Assay [2] concerns MDA-MB-231 cells. Put plainly: Cell cycle analysis by flow cytometry (PI). The format is cell-based, human. Particulars: 16 µM (2 × IC50), vs vehicle control; 24 h / 48 h. On the procedure:
To explore the ability of compound 7 to regulate cell cycle progression, the percentage of cells in different phases was analyzed after 24 h of exposure.
Figure 2 Compound 7 induced cell cycle arrest, apoptosis, and ROS production, in MDA-MB-231 cells. […] (B) Effect of 16 µM of compound 7 on cell cycle progression after 48 h of treatment in MDA-MB-231 cells; the percentage of cells in each phase of the cell cycle was analyzed by flow cytometry, using PI; data are mean ± SEM of three independent experiments. […] (C) Effect of 16 µM of compound 7 on apoptosis after 48 h of treatment; the percentage of Annexin-positive cells was analyzed by flow cytometry using PI and Annexin-V staining; data are mean ± SEM of three independent experiments. […] (F) The graph represents the quantification of protein expression levels relative to DMSO; data are mean ± SD of three independent experiments. The ability of compound 7 to induce apoptosis in this cell line was also assessed by cytometry, using the Annexin V-FITC assay after 48 h of treatment. […]
The analyses were performed basically as described in [33]. […] The cells were then analyzed by flow cytometry, and cell cycle phases were identified and quantified using the FlowJo × 10.0.7 Software (Treestar, Ashland, OR, USA). […]
In general terms: A flow cytometer gives signals particle by particle.

Assay [3] relates to MDA-MB-231 cells. Put plainly: Combination therapy with etoposide (SRB, CompuSyn), MDA-MB-231. The format is cell-based, human. On the procedure: (§4) The effect of 1.5 μM of compound 7 in combination with a range of concentrations of etoposide was evaluated after 48 h of treatment using CompuSyn software to calculate the combination index (CI) values for each combined treatment: CI < 1, synergy; 1 < CI < 1.1, additive effect; CI > 1.1, antagonism.
(§5) The effect of combined treatments on cell proliferation was analyzed by SRB assay. For each combination, the combination index (CI) values were calculated using the CompuSyn Software version 1.0; CI values < 1, 1 < CI < 1.1, and >1.1 indicate synergistic, additive, and antagonistic effects, respectively.

Another assay concerns HFF-1 cells. Put plainly: Combination therapy with etoposide (SRB, CompuSyn), HFF-1. The format is cell-based, human. Conditions: for Combination Index HFF-1: 48 h. On the procedure:
as §4, §5

One may read the IC50 as the midpoint of a concentration-inhibition curve. On to `COc1cc2c(cc1O)C(=O)OC1[C@@H](O)C=C3CCN(C)C3[C@]21O` (stereo partly drawn) [Compound 7, 2α-10bα-dihydroxy-9-O-demethylhomolycorine], for which the “effect of compound alone on cancer cell growth” value with MDA-MB-231 cells [1] (1.5 µM) is listed as “no significant effect on cancer cell growth”. Also, the IC50 in the assay with MDA-MB-231 cells [1] (Homo sapiens, MDA-MB-231, 48 h) came out at 8.02 µM; in the assay on MDA-MB-231 cells [1] it was 8 ± 1.68 µM; with MCF12A cells, 5.6 ± 0.8 µM. The “SI E/A” value in the assay with MDA-MB-231 cells [1] (selectivity index, HFF-1 vs MDA-MB-231) is given as 1.65. Moreover, the “SI D/A” value with MDA-MB-231 cells [1] (selectivity index, MCF12A vs MDA-MB-231) was 0.69. For the same compound, the cell cycle progression result with MDA-MB-231 cells [2] is reported as “significant accumulation of cells in the G2/M phase”. The “Combination Index MDA-MB-231” value in the assay on MDA-MB-231 cells [3] (1.5 µM compound 7 + etoposide 0.4 µM, 48 h) was 1.23; in the assay on MDA-MB-231 cells [3] (1.5 µM compound 7 + etoposide 0.8 µM, 48 h), 0.87; with MDA-MB-231 cells [3] (1.5 µM compound 7 + etoposide 1.5 µM, 48 h) it was 0.81; in the assay on MDA-MB-231 cells [3] (1.5 µM compound 7 + etoposide 3 µM, 48 h) it was 0.86. Also, the “type of interaction with etoposide, MDA-MB-231” value in the assay with MDA-MB-231 cells [3] (1.5 µM compound 7, etoposide 0.8, 1.5 and 3 µM) was “synergistic effects”. Moreover, in the assay with MDA-MB-231 cells [3] (1.5 µM compound 7, etoposide 0.8, 1.5 and 3 µM, 48 h), the “effect on growth inhibitory effect of etoposide” value was “significantly increased the growth inhibitory effect of etoposide”. Moreover, the “Combination Index HFF-1” value came to 1.19 with HFF-1 cells (1.5 µM compound 7 + etoposide 0.4 µM), 1.34 in the assay with HFF-1 cells (1.5 µM compound 7 + etoposide 0.8 µM), 1.12 in the assay on HFF-1 cells (1.5 µM compound 7 + etoposide 1.5 µM) and 1.09 in the assay with HFF-1 cells (1.5 µM compound 7 + etoposide 3 µM). Moreover, the “type of interaction with etoposide, HFF-1” value in the assay with HFF-1 cells (same experimental conditions as in MDA-MB-231 cells) is “no synergistic effects”.

These data come from article PMC9501014, “Amaryllidaceae-Type Alkaloids from Pancratium maritimum: Apoptosis-Inducing Effect and Cell Cycle Arrest on Triple-Negative Breast Cancer Cells” (Molecules, 2022).
